row,Compound,melting point [°C]
1,O=C1CCc2ncc3cc(F)ccc3c2N1,266 to 267
2,CCCCCCCCCCCCCCCC(=O)OCCCN(C)C,49 to 50
3,Cc1ccc(-c2cncc(/C=C/C(=O)O)c2)cc1,208 to 211
4,Cc1noc(NS(=O)(=O)c2ccccc2-c2ccc(-n3cccn3)cc2)c1C,88 to 98
5,CC12CCC3C(CCC4C(=O)CCCC43C)C1CCC2O (centres undefined),123 to 126
6,NC(c1ccc(Cl)cc1Cl)P(O)O (centres undefined),244
7,CSC(=S)C1(c2ccccn2)SCCCS1,91
8,CC(=NN=c1[nH]cccc1Cl)C(F)(F)F,64 to 64.5
9,CC(C)(C)c1nnc(S)o1,79 to 80
10,Nc1ccc(CN2CCC(=O)C(=C3SC=CS3)C2=O)cc1,156 to 158
11,CCCCCCCCCCCCCCCCOc1ccc(S(N)(=O)=O)cc1N,103 to 105
12,Nn1c(C(F)(F)F)cc(=O)n(-c2ccc(O)cc2)c1=O,150 to 155
13,CSc1nc(Cl)c(C(Cl)Cl)c(Cl)n1,66
14,Clc1nccc2cc(Br)ccc12,103 to 104
15,Nc1cccc2c(=O)[nH]sc12,161 to 165
16,CC(C)(CO)NC(=O)NCCNCC(O)COc1ccc(O)cc1 (centres undefined),113 to 130
17,OC1OC2C(Br)C3CC1C2C3 (centres undefined),61
18,CCOC(=O)C1(C(=O)Nc2ccc(F)cc2F)CC1,79 to 80.5
19,Cc1nc(-n2ccccc2=O)sc1C(=O)NCc1cccnc1,218 to 220

row,Compound,melting point [°C]
1,Cc1ccc(C)c(C2=C(O)C(CC3CCS(=O)(=O)CC3)NC2=O)c1 (centres undefined),244 to 246
2,Oc1ccc(-c2cc(F)c3cc(O)ccc3c2)cc1,236 to 238
3,CN(C)c1cccc(OC(=O)NC2C(=O)N(CC34CC5CC(CC(C5)C3)C4)c3ccccc3N(c3ccccc3)C2=O)c1 (centres undefined),130 to 132
4,COc1cc(OC)nc(CC(=O)O)n1,175 to 177
5,C[N+]([O-])=C(Cn1ccnc1)c1cccs1,162 to 164
6,Brc1cnc(SCc2cccs2)nc1,87
7,NS(=O)(=O)c1cc2cc(C=O)sc2s1,188 to 189
8,FC(F)(F)c1ccc(Sc2nc(-c3ccccc3)c(-c3ccccc3)[nH]2)cc1,227 to 229
9,CC1(C(O)(COc2ccc(Cl)cc2)Cn2cncn2)CC1(F)F (centres undefined),110
10,Cc1ccc2c(=O)[nH]c(N3CCN(C)CC3)cc2c1,242 to 243
11,COc1ccc(-c2ccc(C#N)cc2)cc1C(C)=O,102
12,COC(=O)CC(c1ccc(F)cc1)C(C(=O)OC)C(=O)OC (centres undefined),75 to 76
13,O=C1N[C@H](/C=C/c2ccccc2)[C@@H]1N1C(=O)c2ccccc2C1=O (relative stereo),168 to 170
14,CC(C)(C)OC(=O)NC(COCCCN)(COCCCN)COCCCN,96 to 98
15,CC(C)=NOCc1nc2c(N)nc3cc(Br)ccc3c2s1,211 to 213
16,CCCCCCC(=O)NNC(=O)OC,74 to 75
17,O=C1OCc2ccc(CO)cc21,107 to 108
18,CC(C)=NOCc1nc2c(N)nc3ccccc3c2n1CC(C)(C)O,212 to 216
19,O=c1[nH]c(=O)n(C2CC(OCc3cccc(Cl)c3)C(CO)O2)cc1F (centres undefined),153 to 155

row,Compound,melting point [°C]
1,Clc1ccc2c(c1)C(n1ccnc1)c1ccccc1CO2 (centres undefined),180 to 182
2,C#Cc1ccc(C2(C3CCCCCCC3)CCCCCCC2)cc1,167
3,Cc1cc2[nH]c3ccncc3c(=O)n2n1,> 300
4,O=C1CNc2cc(F)ccc2N1,176 to 178
5,CCNC(=O)N=C(NC(=O)Nc1ccccc1C)SC,152 to 153
6,OC(Cc1ccccc1)c1nc(-c2ccncc2)cs1 (centres undefined),120 to 122
7,CC1NC(=O)NN=C1c1ccccn1 (centres undefined),212 to 214
8,CCCCCCCCc1ccc(C(=O)CCCCCC(=O)OCC)cc1,38 to 40
9,O=C(CCC(=O)N1CCC[C@H]1C(=O)O)c1ccccc1,95 to 97
10,Cc1c(C)c2c(c(C)c1O)CCC(C)(C#Cc1cccc(C(F)(F)F)c1)O2 (centres undefined),81 to 83
11,COc1ccc(CN2Cc3c(-c4noc(C5CC5)n4)ncn3-c3ccc(Cl)cc3C2=O)c(OC)c1,198 to 205
12,CC(C)(C)c1ccc(N(c2ccccc2)c2ccc(-c3ccc(Nc4ccccc4)cc3)cc2)cc1,126 to 127
13,O=C(O)c1ccccc1OC(F)(F)C(F)F,158 to 160
14,CCCCCCSC(=S)N1Cc2[nH]c3ccccc3c2CC1CO (centres undefined),102 to 106
15,O=C1Cc2cc(Br)ccc2O1,147 to 148
16,CC1(C)C(=O)NCCN1C(=O)C(N)Cc1ccccc1 (centres undefined),70 to 73
17,O=C(O)CCCCCCCCCCCCC(=O)OCc1ccccc1,73.5 to 74
18,CCOC(=O)c1c(C(F)(F)F)nsc1SC,64 to 65
19,Cc1cccc(C2=C(c3ccc(S(C)(=O)=O)cc3)OC3(CCCCC3)C2=O)c1,154 to 155

# Continued, values first:
row,melting point [°C],Compound
1,181,CCOC(=O)c1c(N2CCNCC2)c2cc(C)ccc2n(-c2ccccc2)c1=O
2,110 to 125,COc1ccc(N2CCOCC2)c2sc(NC(=O)N(C)C3CCCC3)nc12
3,145 to 148,N#Cc1ccnc(Oc2ccc(CCNc3ncnc4scnc34)cc2)c1
4,151 to 152,CCC(=O)Nc1cnc2ccccc2c1Cl
5,141 to 143,CS(=O)(=O)c1ccc(-c2cnc(N(Cc3ccc(C(F)(F)P(=O)(O)O)c(Cl)c3)c3ccc(Cl)c(Cl)c3)o2)cc1
6,207 to 208,C=CCn1c(=O)c2c(nc(/C=C/c3ccc(OC(C)=O)c(OC)c3)n2C)n(CC=C)c1=O
7,71 to 72,COCOCC1Oc2c(OC)cccc2C1=O (centres undefined)
8,208 to 211,OC1CSC(Oc2cncc(-c3ccc(F)cc3Cl)c2)C(O)C1O (centres undefined)
9,236 to 238,CC1CCc2cc(F)cc3c(=O)c(C(=O)NN)cn1c23 (centres undefined)
10,138 to 140,CC(=O)NCC1CN(c2ccc(N3CCC(=CC#N)C(F)C3)c(F)c2)C(=O)O1 (centres undefined)
11,205,N=C(N)NC(=O)OCCNC(=O)c1ccc2cc(C(=O)NC(=N)N)ccc2c1
12,199 to 200,Cc1ccc(C(=O)c2cc3cc(OCc4ccccc4)ccc3[nH]2)cc1
13,205,CCOC(=O)c1cc2cc(NC(=O)OCc3ccccc3)ccc2nn1
14,90 to 92,COC(=O)C(C)(C)CCCOc1cc(C)c(NS(=O)(=O)c2ccc(OC)cc2)cc1C
15,171 to 178,CCNc1cc(-c2nc(=O)c3ccccc3s2)ccc1C(=O)OC
16,51 to 59,COCCOc1ccc(Nc2nc(Nc3cc4c(cc3OC)CCN(CC(=O)N(C)C)CC4)ncc2Cl)c(OC)c1
17,130 to 131,Nc1cc(CCC(=O)NC2CCc3ccccc32)ccc1O (centres undefined)
18,200 to 202,COc1ccc(/C=C/C(=O)C2C(=O)CC(c3ccc(OC)cc3)C([N+](=O)[O-])C2c2ccc(OC)cc2)cc1 (centres undefined)
19,214 to 217,CCCc1cc(-c2ccc(Cl)cc2)nc2c(C(=O)Nc3cccc(S(C)(=O)=O)c3)cnn12
20,146 to 150,N=C(N)c1ccc(C(=O)N[C@@H](Cc2ccccc2)C(=O)N2CCc3nn(CC(=O)O)cc3C2)cc1
21,79 to 81,COc1ccc(CN2CCC(COc3ccc(F)cc3)CC2)cc1
22,161 to 162,COc1cc2c(cc1OCc1ccccc1)CCN(Cc1ccc(C#N)cc1)C2
23,164 to 166,Cc1ccc(COc2ccc3c(c2)c(C=CC(=O)O)cn3CC(=O)N(C)CCc2ccccc2)cc1
24,368 to 370,NC(=O)c1nc(-c2cccc(O)c2)nc2c1[nH]c(=O)n2CC1CCCCC1

row,melting point [°C],Compound
1,> 90,CCCCc1nn(-c2cc(C(=O)N(C)CCCC)ccc2Cl)c(=O)n1Cc1ccc(-c2ccccc2S(=O)(=O)NC(=O)c2ccccc2Cl)cc1
2,90,COC(=O)Cc1ccc(OCc2ccc3ccccc3n2)c(Br)c1
3,254 to 259,CNC(=O)c1cc(C(=O)O)c(Nc2ccc(I)cc2C)c(F)c1F
4,115 to 117,COc1cc(N)c(Cl)cc1C(=O)NCC1CCN(CCCCCC(=O)c2ccc(F)cc2F)CC1
5,127 to 128,CCCCOc1c(CN2C(=O)c3ccccc3C2=O)n(CC2CC2)c(=O)c2ccc(OCc3ccccc3)cc12
6,> 260,CCOC(=O)c1c(Cl)nc2ccccc2c1CCl
7,232,CNC(=O)c1ccc(C=CC(=O)NCC(=O)N(C)c2ccc(C)c(CCl)c2C)cc1
8,126 to 127,COc1ccc(C=CC(=O)c2ccc(OCC(O)CN3CCN(c4ccccc4)CC3)cc2)cc1OC (centres undefined)
9,86 to 87,CCOC(=O)c1ccc(OCc2ccc3ccccc3c2)c(OC)c1
10,159 to 160,CCC(CC)Oc1nc(C)nc2c1[nH]c(=O)n2-c1c(C)cc(C)cc1C
11,99 to 100,COc1ccc(C2CCN(C(=O)CCC(=O)c3ccc4c(c3)CCNCC4)CC2)cc1
12,281 to 297,Cc1cc(C)c(-c2cc3cnc(N)nc3nc2NC(=O)NC(C)(C)C)c(C)c1
13,173 to 175,COc1cc(Cl)c(N)cc1-c1nc(C)c(-c2cccnc2)[nH]1
14,205 to 207,CC(C)(C)c1cc(N2Cc3ccccc3C2=O)cc(C(C)(C)C)c1O
15,180 to 182,COc1ncc(Cc2nnc(Nc3ccc(C(C)(C)C)cc3)c3ccccc23)cc1-c1ccco1
16,135 to 138,CCCCc1oc2ccccc2c1C(=O)NCc1ccc2c(-c3ccccc3)c(OCC#N)ccc2c1
17,130 to 132,CSc1nn(-c2c(Cl)cc(C(F)(F)F)cc2Cl)c(N)c1C(=O)c1cc(C)ccc1C
18,125,CCCNC(=O)Nc1ccc(C(=O)c2c(C)c(OCCOC)c3ccccn23)cc1C(=O)OC
19,105 to 107,CCC(CC)Oc1cc(C)nc(Nc2c(C)cc(C)cc2C)c1C#N
20,187 to 189,CCOC(=O)NCc1cccc(C(=O)OC)c1C(=O)OC
21,255 to 257,COc1cc2ncc(C#N)c(Nc3cccc(O)c3C)c2cc1OC
22,157,COc1cc(F)ccc1C(=O)NCCN1CCC(O)(c2ccc(Cl)cc2)CC1
23,72 to 81,CC(C)(C)CC(C)(C)c1cc(Cl)c(O)c(-n2nc3ccc(C(F)(F)F)cc3n2)c1
